Values of other authors as cited in patent US20070196517A1, “Modified Saponin Molluscicide” (priority 2005, published 2007).
Where a name gives a salt, the structure may show the parent alone.

Key:
golden apple snails = conditions: rice fields (Bayer, 2005)
tropical fish (carp) = conditions: carp (WHO 2002)

O=C(Nc1ccc([N+](=O)[O-])cc1Cl)c1cc(Cl)ccc1O [Niclosamide, 2-aminoethanol salt of 2′,5-dichloro-4′,nitro-salicylanilide]
effective doses for control of golden apple snail (golden apple snails): 0.5 to 1.0 mg/L | LC50 (kills 50% of tropical fish) (tropical fish (carp)): 0.14 µg/mL
